Source: patent publication US10295551B2, “Development and use of fluorescent probes of unbound bilirubin” (Alan Marc Kleinfeld, priority 2011, dated 2019)

How the values were obtained:
[1] = target: T1, rI-FABP (SEQ ID NO: 3) variant BL10P10 D10, 14F 18L 27C 38M 60Y 73F 106V 115R 117D (Rattus norvegicus, UniProt P02693, A74F/K28C/L39M/L73A/M19L/Q116R/R107V/V61Y/Y118D/Y15F); test: bilirubin binding to BL10P10D10 probe; details: Table 5, acrylodan
T1 construct: made in house
Protocol: (§1) Also described are analytical/mathematical methods for calibrating and using the bilirubin probes. Bilirubin probes are calibrated to determine their binding affinity for bilirubin (dissociation constant Kd) under conditions, such as temperature, pH and solution composition, that correspond to samples in which it is desired to know the unbound bilirubin concentration. Binding isotherms are performed in aqueous buffer by measuring the change in fluorescence of the bilirubin probes in response to increasing bilirubin concentrations (“titration data”). The set of fluorescence responses at each bilirubin concentration are fitted with an appropriate equation (“calibration equation”) that correctly describes the fluorescence response as a function of the bilirubin concentration, the probe concentration, specific spectroscopic characteristics, and the Kd.

[2] = target: T2, rI-FABP (SEQ ID NO: 3) variant L24P19 C7 K27K 30C, 14R 18L 30C 38V 60R 73F 106C 115R 117D (Rattus norvegicus, UniProt P02693, A74F/L31C/L39V/L73A/M19L/Q116R/R107C/V61R/Y118D/Y15R); test: bilirubin binding to L24P19C7 30C probe; details: Table 5, acrylodan
T2 construct: made in house
Protocol: as §1
(§2) . […] The optimal probe performance was obtained with cysteine at positions 25 or 26.

[3] = target: T3, rI-FABP (SEQ ID NO: 3) variant L2P14 F7-KR14 - K27C, KR14-18G 27C 31M 72A (Rattus norvegicus, UniProt P02693, G32M/K101R/K126R/K17R/K21R/K28C/K30R/K38R/K47R/K51R/K89R/K8R/K93R/K95R/L73A/M19G); test: bilirubin binding to L2P14F7-KR14-K27C probe; details: Table 5, acrylodan
T3 construct: made in house
Protocol: as §1

[4] = target: T4, rI-FABP (SEQ ID NO: 3) variant L10P9 E6, 14T 18L 73M 117C 72A (Rattus norvegicus, UniProt P02693, A74M/L73A/M19L/Y118C/Y15T); test: bilirubin binding to L10P9E6 probe; details: Table 5, acrylodan
T4 construct: made in house
Protocol: as §1

[5] = target: T5, rI-FABP (SEQ ID NO: 3) variant BL22P1B11, MGI-KR14-14R 18L 25C 27A 38V 60R 73F 106L 115R 117D, SEQ ID NO: 35 (Rattus norvegicus, UniProt P02693, A74F/K101R/K126R/K17R/K21R/K28A/K30R/K38R/K47R/K51R/K89R/K8R/K93R/K95R/L39V/L73A/M19L/Q116R/R107L/V26C/V61R/Y118D/Y15R); type: binding; details: Table 5, Alexa Fluor 680 C2-maleimide; read-out: Kd
T5 construct: made in house

[6] = target: T6, rI-FABP (SEQ ID NO: 3) variant BL22P1 B11 - 26C, MGI - KR14 - Y14R M18L V26C K27A L38V V60R A73F R106L Q115R Y117D (Rattus norvegicus, UniProt P02693, A74F/K101R/K126R/K17R/K21R/K28A/K30R/K38R/K47R/K51R/K89R/K8R/K93R/K95R/L39V/L73A/M19L/Q116R/R107L/V27C/V61R/Y118D/Y15R); type: binding; details: Table 5, Alexa Fluor 680 C2-maleimide
T6 construct: 6xHis (C); made in house
Protocol: as §1

[7] = target: T7, rI-FABP (SEQ ID NO: 3) variant BL22P1 B11 - 24C, MGI - KR14 - 14R 18L 24C 27A 38V 60R 73F 106L 115R 117D (Rattus norvegicus, UniProt P02693, A74F/K101R/K126R/K17R/K21R/K28A/K30R/K38R/K47R/K51R/K89R/K8R/K93R/K95R/L39V/L73A/M19L/N25C/Q116R/R107L/V61R/Y118D/Y15R); type: binding; details: Table 5, Alexa Fluor 680 C2-maleimide
T7 construct: 6xHis (C); made in house
Protocol: as §1

[8] = target: T8, rI-FABP (SEQ ID NO: 3) variant BL22P1 B11 - 29C, MGI - KR14 - 14R 18L 27A 29C 38V 60R 73F 106L 115R 117D (Rattus norvegicus, UniProt P02693, A74F/K101R/K126R/K17R/K21R/K28A/K30C/K38R/K47R/K51R/K89R/K8R/K93R/K95R/L39V/L73A/M19L/Q116R/R107L/V61R/Y118D/Y15R); type: binding; details: Table 5, Alexa Fluor 680 C2-maleimide
T8 construct: 6xHis (C); made in house
Protocol: as §1

[9] = target: T9, rI-FABP (SEQ ID NO: 3) variant BL2P2 B6, 14R 18L 31C 38V 60R 73V 106A 115R 117D (Rattus norvegicus, UniProt P02693, A74V/G32C/L39V/L73A/M19L/Q116R/R107A/V61R/Y118D/Y15R); test: bilirubin binding to BL2P2B6 probe; details: Table 5, acrylodan
T9 construct: made in house
Protocol: as §1

[10] = target: T10, rI-FABP (SEQ ID NO: 3) variant L2P14 F7 - K27C, 18G 27C 31M 72A (Rattus norvegicus, UniProt P02693, G32M/K28C/L73A/M19G); test: bilirubin binding to L2P14F7-K27C probe; details: Table 5, acrylodan
T10 construct: made in house
Protocol: as §1

[11] = target: T11, rI-FABP (SEQ ID NO: 3) variant L24P19 C7 K27A, 14R 18L 27A 38V 60R 73F 106C 115R 117D (Rattus norvegicus, UniProt P02693, A74F/K28A/L39V/L73A/M19L/Q116R/R107C/V61R/Y118D/Y15R); test: bilirubin binding to L24P19C7 K27A probe; details: Table 5, acrylodan
T11 construct: made in house
Protocol: as §1

[12] = target: T12, rI-FABP (SEQ ID NO: 3) variant L22P19 B9, 38R 72A 73M 106Q 115C (Rattus norvegicus, UniProt P02693, A74M/L39R/L73A/Q116C/R107Q); test: bilirubin binding to L22P19B9 probe; details: Table 5, acrylodan
T12 construct: made in house
Protocol: as §1

[13] = target: T13, rI-FABP (SEQ ID NO: 3) variant L24P19 C7 K27K 24C, 14R 18L 24C 38V 60R 73F 106C 115R 117D (Rattus norvegicus, UniProt P02693, A74F/L39V/L73A/M19L/N25C/Q116R/R107C/V61R/Y118D/Y15R); test: bilirubin binding to L24P19C7 24C probe; details: Table 5, acrylodan
T13 construct: made in house
Protocol: as §1, §2

T5 sequence (P02693 with tags, fused parts or gaps with the stated changes): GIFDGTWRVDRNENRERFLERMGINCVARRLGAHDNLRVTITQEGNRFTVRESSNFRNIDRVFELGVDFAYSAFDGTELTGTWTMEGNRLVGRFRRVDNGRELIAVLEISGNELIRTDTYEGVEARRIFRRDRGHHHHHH
T12 sequence (P02693 with tags, fused parts or gaps L39R/L73A/A74M/R107Q/Q116C): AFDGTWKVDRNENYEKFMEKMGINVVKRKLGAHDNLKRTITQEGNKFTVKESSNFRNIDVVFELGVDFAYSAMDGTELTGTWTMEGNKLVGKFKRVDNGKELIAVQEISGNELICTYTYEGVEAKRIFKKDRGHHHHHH
T10 sequence (P02693 with tags, fused parts or gaps M19G/K28C/G32M/L73A): as the sequence (P02693 with tags, fused parts or gaps L39R/L73A/A74M/R107Q/Q116C) above, with M18G, K27C, G31M, R38L, M73A, Q106R, C115Q counted along it
T7 sequence (P02693 with tags, fused parts or gaps with the stated changes): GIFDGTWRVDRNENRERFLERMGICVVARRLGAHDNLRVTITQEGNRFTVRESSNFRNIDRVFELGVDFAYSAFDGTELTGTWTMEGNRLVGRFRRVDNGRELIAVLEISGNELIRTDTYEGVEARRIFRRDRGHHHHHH
T4 sequence (P02693 with tags, fused parts or gaps Y15T/M19L/L73A/A74M/Y118C): as the sequence (P02693 with tags, fused parts or gaps L39R/L73A/A74M/R107Q/Q116C) above, with Y14T, M18L, R38L, Q106R, C115Q, Y117C counted along it
T6 sequence (P02693 with tags, fused parts or gaps with the stated changes): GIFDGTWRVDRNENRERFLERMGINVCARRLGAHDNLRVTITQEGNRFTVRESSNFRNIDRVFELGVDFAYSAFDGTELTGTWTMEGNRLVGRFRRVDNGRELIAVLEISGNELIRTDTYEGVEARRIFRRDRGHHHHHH
T11 sequence (P02693 with tags, fused parts or gaps Y15R/M19L/K28A/L39V/V61R/L73A/A74F/R107C/Q116R/Y118D): as the sequence (P02693 with tags, fused parts or gaps L39R/L73A/A74M/R107Q/Q116C) above, with Y14R, M18L, K27A, R38V, V60R, M73F, Q106C, C115R, Y117D counted along it
T13 sequence (P02693 with tags, fused parts or gaps Y15R/M19L/N25C/L39V/V61R/L73A/A74F/R107C/Q116R/Y118D): as the sequence (P02693 with tags, fused parts or gaps L39R/L73A/A74M/R107Q/Q116C) above, with Y14R, M18L, N24C, R38V, V60R, M73F, Q106C, C115R, Y117D counted along it
T2 sequence (P02693 with tags, fused parts or gaps Y15R/M19L/L31C/L39V/V61R/L73A/A74F/R107C/Q116R/Y118D): as the sequence (P02693 with tags, fused parts or gaps L39R/L73A/A74M/R107Q/Q116C) above, with Y14R, M18L, L30C, R38V, V60R, M73F, Q106C, C115R, Y117D counted along it
T9 sequence (P02693 with tags, fused parts or gaps Y15R/M19L/G32C/L39V/V61R/L73A/A74V/R107A/Q116R/Y118D): as the sequence (P02693 with tags, fused parts or gaps L39R/L73A/A74M/R107Q/Q116C) above, with Y14R, M18L, G31C, R38V, V60R, M73V, Q106A, C115R, Y117D counted along it
T1 sequence (P02693 with tags, fused parts or gaps Y15F/M19L/K28C/L39M/V61Y/L73A/A74F/R107V/Q116R/Y118D): as the sequence (P02693 with tags, fused parts or gaps L39R/L73A/A74M/R107Q/Q116C) above, with Y14F, M18L, K27C, R38M, V60Y, M73F, Q106V, C115R, Y117D counted along it
T8 sequence (P02693 with tags, fused parts or gaps with the stated changes): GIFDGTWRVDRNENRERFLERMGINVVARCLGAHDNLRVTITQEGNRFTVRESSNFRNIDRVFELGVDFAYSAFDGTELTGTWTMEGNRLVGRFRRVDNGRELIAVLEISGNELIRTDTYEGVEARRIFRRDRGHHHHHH
T3 sequence (P02693 with tags, fused parts or gaps with the stated changes): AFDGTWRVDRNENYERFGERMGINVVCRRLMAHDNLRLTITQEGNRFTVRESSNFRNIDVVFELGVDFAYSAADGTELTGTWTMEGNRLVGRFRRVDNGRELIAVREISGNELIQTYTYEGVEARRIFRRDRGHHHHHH

Kd [1]: 400 nM | Kd [2]: 26 nM | Kd [3]: 530 nM | Kd [4]: 1430 nM | Kd [5]: 110 nM | Kd [6]: 197 nM | Kd [7]: 72 nM | Kd [8]: 118 nM | Kd [9]: 137 nM | Kd [10]: 250 nM | Kd [11]: 21 nM | Kd [12]: 400 nM | Kd [13]: 89 nM
SMILES: C=CC1=C(C)/C(=C/c2[nH]c(Cc3[nH]c(/C=C4\NC(=O)C(C)=C4C=C)c(C)c3CCC(=O)O)c(CCC(=O)O)c2C)NC1=O [bilirubin]
